Experimental data: article PMC8353886 (ACS Medicinal Chemistry Letters, 2021)

Tests used:
[1] = test system: SARS-CoV-2 Spike pseudotyped particle (PP); test: microbe, parasite or virus in culture; type: cell-based; conditions: Severe acute respiratory syndrome coronavirus 2, read-out: SARS-CoV-2 PP IC50
MERS = conditions: cited from earlier work
SARS-CoV-2 = conditions: in words; cited from earlier work
SARS-CoV-1 = conditions: cited from earlier work

Compound | IC50 [1] [µM] | inhibitory activity against MERS in the PP entry assay (MERS) | inhibitory activity against SARS-CoV-2 in the PP entry assay (SARS-CoV-2) | inhibitory activity against SARS-CoV-1 in the PP entry assay (SARS-CoV-1)
CN1[C@@H]2CC[C@H]1C[C@@H](OC(c1ccccc1)c1ccc(Cl)cc1)C2 (stereo partly shown) [Clobenztropine] | 12.6 | – | – | –
CN1CCN(C(c2ccccc2)c2ccc(Cl)cc2)CC1 (stereo not shown) [CCZ, chlorcyclizine] | – | inhibitory activities | inhibitory activities | inhibitory activities
